Reference: patent US4649204A, “Dialkanolamine derivatives” (McNeilab, Inc., priority 1985, dated 1987)
Structures can show the parent of a compound that is named as a salt. Where two headings read alike, the source gives them in different places.

Tested on: decrease in exploratory activity and ptosis induced with tetrabenazine in mice
Assay: tetrabenazine (TBZ) antagonism test: antagonism of the decrease in exploratory activity and ptosis induced by tetrabenazine in mice (antidepressant activity)
Type: in vivo
Settings: test compound 30 minutes prior to 32 mg/kg i.p. tetrabenazine; for ED50: Mus musculus, ip
Method: The antidepressant activity was determined using the "classical" tetrabenazine (TBZ) antagonism test. […] J. H. Nodine and J. H. Moyer (Lea and Febiger, Philadelphia) p.
Thirty minutes post tetrabenazine, the mice are tested for the presence of normal exploratory activity and ptosis. […] Three to five dosage levels, 10 mice per dosage level, are used per compound.

[1] = first figure of EA/Pt, read-out: TBZ ED50, EA (exploratory activity)
[2] = second figure of EA/Pt, read-out: TBZ ED50, Pt (ptosis)

| SMILES | ED50 [1] [mg/kg] | ED50 [2] [mg/kg] | TBZ ED50, EA (exploratory activity) (i.p., first figure of EA/Pt) [mg/kg] | TBZ ED50, Pt (ptosis) (i.p., second figure of EA/Pt) [mg/kg] |
| --- | --- | --- | --- | --- |
| CCC(C(c1ccccc1)c1ccccc1)N(CCO)CCO (stereo not drawn) [Example IV, 2,2'-[(1,1-Diphenyl-2-butyl)imino]bis[ethanol]Fumarate] | 23 | 19 |  |  |
| CC(O)CN(CC(C)O)CC(c1ccccc1)c1ccccc1.Cl (stereo not drawn) [III, 1,1'-[(2,2-Diphenylethyl)imino]bis[2-propanol].HCl] |  |  | 11 | 6 |
| O[C@H]1CN(CC(c2ccccc2)c2ccccc2)C[C@@H]1O [IX, 1-(2,2-Diphenylethyl)pyrrolidine-3,4-diol Hemifumarate] | 35 | 6 |  |  |
| CC(C(c1ccccc1)c1ccccc1)N(CCO)CCO (stereo not drawn) [Example V, 2,2'-[(1,1-Diphenyl-2-propyl)imino]bis[ethanol]Fumarate] | 13 | 8 |  |  |
| OCCN(CCO)CC(c1ccccc1)c1ccccc1 [Example I, 2,2'-[(2,2-Diphenylethyl)imino]bis[ethanol]Hydrochloride] | 15 | 1.5 |  |  |
| OCCN(CCO)CC(c1ccc(Cl)cc1)c1ccc(Cl)cc1 [Example VII, 2,2'-{[2,2-Bis(4-chlorophenyl)ethyl]imino}bis{ethanol}] | ~60 | ~60 |  |  |
| CC(CN(CCO)CCO)(c1ccccc1)c1ccccc1 [II, 2,2'-[(2,2-Diphenylpropyl)imino]bis[ethanol]Hydrochloride] | 28 | 35 |  |  |
| OCCN(CCO)CC(c1ccccc1)c1cccs1 (stereo not drawn) [Example VI, 2,2'-{[2-Phenyl]-2-[(2-thienyl)ethyl]imino}bis{ethanol}.HI] | ~60 | ~60 |  |  |
| OCCN(CCO)CC(F)(c1ccccc1)c1ccccc1 [Example VIII, 2,2'-[(2-Fluoro-2,2-diphenylethyl)imino]-bis[ethanol]Dihexamate] | 40 | 12 |  |  |
